According to US20220054513A1, “COMBINATION COMPOSITIONS COMPRISING A BETA-LACTAMASE INHIBITOR” (VenatoRx Pharmaceuticals, Inc., priority 2018, published 2022):
Like-named read-outs stand apart in the source and are kept apart here.

What was measured:
[1] = test system: cefepime-resistant clinical isolates of Enterobacteriaceae and P. aeruginosa; experiment: neutropenic murine thigh infection model, human simulated regimens; type: in vivo, mice; details: human simulated regimen (HSR) of 2 g cefepime alone q8 h; at 24 h; 30 strains
Description: The 2 g:0.5 g dose of cefepime:Compound 1 which is planned for clinical efficacy studies is supported by neutropenic murine thigh infection model studies using 30 cefepime-resistant clinical isolates of Enterobacteriaceae and P. aeruginosa.

[2] = test system: Acinetobacter baumannii-calcoaceticus species complex clinical isolates; experiment: MIC of triple combinations (Compound 1, sulbactam, meropenem or cefepime), 141 clinical isolates; type: cell-based; details: Acinetobacter, Cmpd 1 at 4 μg/mL in combinations, read-out: MIC
Description: For a more comprehensive assessment of the ability of test compounds to potentiate sulbactam in triple combinations with β-lactams additional MIC assays were utilized.

[3] = test system: multi-drug resistant Acinetobacter baumannii; experiment: broth microdilution MIC of sulbactam, ampicillin, cefepime and combinations +/- Compound 1, panel of 51 Acinetobacter isolates

CO/N=C(\C(=O)N[C@@H]1C(=O)N2C(C(=O)[O-])=C(C[N+]3(C)CCCC3)CS[C@H]12)c1csc(N)n1 [FEP, cefepime]
16 µg/mL: MIC ([2]; strain 997574) | MIC ([2]; strain 1001611) | MIC ([2]; strain 1035794) | MIC ([2]; strain 1036882) | MIC ([3]; read-out: Minimum inhibitory concentration (MIC), strain 0280 (TEM-1D, ADC-25, OXA-66)) | MIC ([3]; read-out: Minimum inhibitory concentration (MIC), strain 0281 (TEM-1D, ADC-25, OXA-82)) | MIC ([3]; read-out: Minimum inhibitory concentration (MIC), strain 0283 (TEM-1D, ADC-25, OXA-23, OXA-66)) | MIC ([3]; read-out: Minimum inhibitory concentration (MIC), strain 0293 (OXA-66, OXA-72)) | MIC ([3]; read-out: Minimum inhibitory concentration (MIC), strain 0300 (ADC-25, OXA-66)) | MIC ([3]; read-out: Minimum inhibitory concentration (MIC), strain 0302 (OXA-23, OXA-82)) | MIC ([3]; read-out: Minimum inhibitory concentration (MIC), strain 0303 (ADC-25, OXA-23, OXA-66)) | MIC ([3]; read-out: Minimum inhibitory concentration (MIC), strain 0305 (TEM-1B, OXA-65, OXA-24)) | MIC ([3]; read-out: Minimum inhibitory concentration (MIC), strain 0308 (TEM-1D, ADC-25, OXA-71)) | MIC ([3]; read-out: Minimum inhibitory concentration (MIC), strain 157834 (enzyme content ND)) | MIC ([3]; read-out: Minimum inhibitory concentration (MIC), strain 157901 (enzyme content ND)) | MIC ([3]; read-out: Minimum inhibitory concentration (MIC), strain 161752 (enzyme content ND))
2 µg/mL: MIC ([2]; strain 1018109)
approximately 2.7 log10 CFU/thigh: growth on average compared to the T=0 control [1]
32 µg/mL: MIC ([2]; strain 994180) | MIC ([2]; strain 996869) | MIC ([2]; strain 1013035) | MIC ([2]; strain 1014143) | MIC ([2]; strain 1023207) | MIC ([2]; strain 1024119) | MIC ([2]; strain 1024215) | MIC ([2]; strain 1027748) | MIC ([2]; strain 1028193) | MIC ([2]; strain 1029913) | MIC ([2]; strain 1030427) | MIC ([2]; strain 1035788) | MIC ([2]; strain 1036781) | MIC ([2]; strain 1036921) | MIC ([2]; strain 1037193) | MIC ([2]; strain 1037256) | MIC ([2]; strain 1037732) | MIC ([2]; strain 1037738) | MIC ([2]; strain 1042182) | MIC50 [3] | MIC ([3]; read-out: Minimum inhibitory concentration (MIC), strain 0273 (ADC-25, OXA-23, OXA-66)) | MIC ([3]; read-out: Minimum inhibitory concentration (MIC), strain 0274 (TEM-1D, ADC-25, OXA-66, OXA-72)) | MIC ([3]; read-out: Minimum inhibitory concentration (MIC), strain 0275 (TEM-1D, ADC-25, OXA-23, OXA-66)) | MIC ([3]; read-out: Minimum inhibitory concentration (MIC), strain 0278 (TEM-1D, ADC-25, OXA-23, OXA-66)) | MIC ([3]; read-out: Minimum inhibitory concentration (MIC), strain 0279 (TEM-1D, ADC-25, OXA-23, OXA-66)) | MIC ([3]; read-out: Minimum inhibitory concentration (MIC), strain 0284 (TEM-1B, OXA-65, OXA-24)) | MIC ([3]; read-out: Minimum inhibitory concentration (MIC), strain 0285 (TEM-1B, OXA-65, OXA-24)) | MIC ([3]; read-out: Minimum inhibitory concentration (MIC), strain 0286 (ADC-25, OXA-66, OXA-24)) | MIC ([3]; read-out: Minimum inhibitory concentration (MIC), strain 0287 (ADC-25, OXA-66, OXA-72)) | MIC ([3]; read-out: Minimum inhibitory concentration (MIC), strain 0289 (ADC-25, OXA-66, OXA-72)) | MIC ([3]; read-out: Minimum inhibitory concentration (MIC), strain 0290 (TEM-1D, ADC-25, OXA-23, OXA-66)) | MIC ([3]; read-out: Minimum inhibitory concentration (MIC), strain 0292 (OXA-66, OXA-72)) | MIC ([3]; read-out: Minimum inhibitory concentration (MIC), strain 0294 (TEM-1B, OXA-23, OXA-65)) | MIC ([3]; read-out: Minimum inhibitory concentration (MIC), strain 0295 (TEM-1D, ADC-25, OXA-23, OXA-66)) | MIC ([3]; read-out: Minimum inhibitory concentration (MIC), strain 0297 (ADC-25, OXA-23, OXA-66)) | MIC ([3]; read-out: Minimum inhibitory concentration (MIC), strain 0298 (TEM-1D, ADC-25, OXA-66, OXA-237)) | MIC ([3]; read-out: Minimum inhibitory concentration (MIC), strain 0304 (ADC-25, OXA-66, OXA-72)) | MIC ([3]; read-out: Minimum inhibitory concentration (MIC), strain 0307 (ADC-25, OXA-66, OXA-237)) | MIC ([3]; read-out: Minimum inhibitory concentration (MIC), strain 0310 (OXA-23, OXA-82)) | MIC ([3]; read-out: Minimum inhibitory concentration (MIC), strain 0312 (OXA-69)) | MIC ([3]; read-out: Minimum inhibitory concentration (MIC), strain 161760 (enzyme content ND))
128 µg/mL: MIC90 [3] | MIC ([3]; read-out: Minimum inhibitory concentration (MIC), strain 0276 (enzyme content ND)) | MIC ([3]; read-out: Minimum inhibitory concentration (MIC), strain 0277 (TEM-1B, OXA-65, OXA-24)) | MIC ([3]; read-out: Minimum inhibitory concentration (MIC), strain 0288 (ADC-25, OXA-23, OXA-66)) | MIC ([3]; read-out: Minimum inhibitory concentration (MIC), strain 0299 (PER-7, OXA-23, OXA-203)) | MIC ([3]; read-out: Minimum inhibitory concentration (MIC), strain 0301 (ADC-25, OXA-66, OXA-72)) | MIC ([3]; read-out: Minimum inhibitory concentration (MIC), strain 0306 (TEM-1B, OXA-65, OXA-24)) | MIC ([3]; read-out: Minimum inhibitory concentration (MIC), strain 0311 (ADC-25, OXA-23, OXA-82)) | MIC ([3]; read-out: Minimum inhibitory concentration (MIC), strain 161750 (enzyme content ND))
> 512 µg/mL: MIC ([2]; strain 996612) | MIC ([2]; strain 1002247) | MIC ([2]; strain 1003787) | MIC ([2]; strain 1010331) | MIC ([2]; strain 1010950) | MIC ([2]; strain 1018801) | MIC ([2]; strain 1030928) | MIC ([2]; strain 1036768) | MIC ([2]; strain 1037479) | MIC ([2]; strain 1037747) | MIC ([2]; strain 1039502) | MIC ([2]; strain 1040917)
64 µg/mL: MIC ([2]; strain 990089) | MIC ([2]; strain 993131) | MIC ([2]; strain 996707) | MIC ([2]; strain 998532) | MIC ([2]; strain 1002208) | MIC ([2]; strain 1002688) | MIC ([2]; strain 1002952) | MIC ([2]; strain 1003557) | MIC ([2]; strain 1008510) | MIC ([2]; strain 1008730) | MIC ([2]; strain 1010245) | MIC ([2]; strain 1011959) | MIC ([2]; strain 1013022) | MIC ([2]; strain 1014646) | MIC ([2]; strain 1016836) | MIC ([2]; strain 1027234) | MIC ([2]; strain 1027603) | MIC ([2]; strain 1031191) | MIC ([2]; strain 1032669) | MIC ([2]; strain 1034880) | MIC ([2]; strain 1034912) | MIC ([2]; strain 1034925) | MIC ([2]; strain 1035825) | MIC ([2]; strain 1036045) | MIC ([2]; strain 1036068) | MIC ([2]; strain 1039515) | MIC ([2]; strain 1039518) | MIC ([2]; strain 1040900) | MIC ([3]; read-out: Minimum inhibitory concentration (MIC), strain 0282 (TEM-1D, ADC-25, OXA-23, OXA-66)) | MIC ([3]; read-out: Minimum inhibitory concentration (MIC), strain 0296 (ADC-25, OXA-23, OXA-223)) | MIC ([3]; read-out: Minimum inhibitory concentration (MIC), strain 0309 (OXA-23, OXA-82)) | MIC ([3]; read-out: Minimum inhibitory concentration (MIC), strain 0313 (TEM-1D, OXA-23, OXA-69))
4 µg/mL: MIC ([2]; strain 1037714) | MIC ([3]; read-out: Minimum inhibitory concentration (MIC), strain 157842 (enzyme content ND))
8 µg/mL: MIC ([2]; strain 998907) | MIC ([2]; strain 999306) | MIC ([3]; read-out: Minimum inhibitory concentration (MIC), strain 0291 (TEM-1D, ADC-25, OXA-23, OXA-66)) | MIC ([3]; read-out: Minimum inhibitory concentration (MIC), strain 157876 (enzyme content ND)) | MIC ([3]; read-out: Minimum inhibitory concentration (MIC), strain 161755 (enzyme content ND)) | MIC ([3]; read-out: Minimum inhibitory concentration (MIC), strain 161756 (enzyme content ND)) | MIC ([3]; read-out: Minimum inhibitory concentration (MIC), strain 161762 (enzyme content ND))
